Assay results published in ChEMBL document CHEMBL1201862, “PubChem BioAssay data set” (2004).
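Method: 48-hour compound exposure of cells in 96-well plates, five concentrations, linear interpolation of endpoints. GI50: concentration for 50% inhibition of growth.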 Calls of active or inactive are those of the source. Cut-off read from the data, not from the text of the source: active = GI50 up to about 1.1 µM and inactive = higher.

Key:
Test in all cases: inhibition of tumour cell growth, NCI panel, 48 h
[1] = test system: OVCAR-5
[2] = test system: MCF7
[3] = test system: CAKI-1
[4] = test system: U-251
[5] = test system: MDA-N
[6] = test system: SF-539
[7] = test system: EKVX
[8] = test system: HCT-116
[9] = test system: SF-268
[10] = test system: CCRF-CEM
[11] = test system: OVCAR-3
[12] = test system: NCI/ADR-RES
[13] = test system: LOX IMVI
[14] = test system: IGROV-1
[15] = test system: RPMI-8226
[16] = test system: SR
[17] = test system: TK-10
[18] = test system: NCI-H522
[19] = test system: SNB-75
[20] = test system: 786-0

SMILES	GI50 [1]	GI50 [2]	GI50 [3]	GI50 [4]	GI50 [5]	GI50 [6]	GI50 [7]	GI50 [8]	GI50 [9]	GI50 [10]	GI50 [11]	GI50 [12]	GI50 [13]	GI50 [14]	GI50 [15]	GI50 [16]	GI50 [17]	GI50 [18]	GI50 [19]	GI50 [20]
Cc1cccc(/C=N\NC(=S)N2CCCCC2)n1	< 0.01 µM (active)	< 0.01 µM (active)	0.126 µM (active)	< 0.01 µM (active)	0.306 µM (active)	0.156 µM (active)	0.673 µM (active)	< 0.01 µM (active)	0.0451 µM (active)	< 0.01 µM (active)	< 0.01 µM (active)	0.0205 µM (active)	0.0681 µM (active)	< 0.01 µM (active)	0.0128 µM (active)	0.019 µM (active)	0.0156 µM (active)	< 0.01 µM (active)	0.611 µM (active)	0.027 µM (active)
COP(=O)(OC)c1ccc(NCc2cc(O)ccc2O)cc1	23.9 µM (inactive)	28.8 µM (inactive)	19.2 µM (inactive)	30.6 µM (inactive)	26.3 µM (inactive)	21.2 µM (inactive)	23.1 µM (inactive)	24.8 µM (inactive)	17.6 µM (inactive)	18.8 µM (inactive)	6.34 µM (inactive)	31 µM (inactive)	26.3 µM (inactive)	30.3 µM (inactive)	19.5 µM (inactive)	14.3 µM (inactive)	23.4 µM (inactive)	17.3 µM (inactive)	29.5 µM (inactive)	25.2 µM (inactive)
Nc1ccc(-c2nnc(-c3c(Cl)c(Cl)c(Cl)c(Cl)c3-c3nc4cc(C(=O)c5ccccc5)ccc4[nH]3)o2)cc1	37.9 µM (inactive)	16 µM (inactive)	48.1 µM (inactive)	18.1 µM (inactive)	4.68 µM (inactive)	14.2 µM (inactive)	28.6 µM (inactive)	20.6 µM (inactive)	28.5 µM (inactive)	14.8 µM (inactive)	21 µM (inactive)	16 µM (inactive)	34.6 µM (inactive)	28.5 µM (inactive)	14.8 µM (inactive)	5.16 µM (inactive)	27.5 µM (inactive)	13.5 µM (inactive)	24 µM (inactive)	17.1 µM (inactive)
Cn1c(-c2ccc[se]2)ccc1-c1ccc(CO)[se]1	< 0.0209 µM (active)	0.0139 µM (active)	< 0.01 µM (active)	< 0.0129 µM (active)	18 µM (inactive)	26.9 µM (inactive)	32.7 µM (inactive)	0.826 µM (active)	44 µM (inactive)	17.1 µM (inactive)	0.0348 µM (active)	9.48 µM (inactive)	21.8 µM (inactive)	< 0.01 µM (active)	1.28 µM (inactive)	10.4 µM (inactive)	0.0129 µM (active)	27.9 µM (inactive)	> 49.4 µM (inactive)	25.6 µM (inactive)
O=C(/C=C/c1ccccc1)CSc1nc2ccc(I)cc2c(=O)n1Cc1ccccc1	> 100 µM (inactive)	28.6 µM (inactive)	1.71 µM (inactive)	26.5 µM (inactive)	30.8 µM (inactive)	39.9 µM (inactive)	7.18 µM (inactive)	19.8 µM (inactive)	14.8 µM (inactive)	11.3 µM (inactive)	12.4 µM (inactive)	14 µM (inactive)	37 µM (inactive)	7.26 µM (inactive)	13.6 µM (inactive)	8.81 µM (inactive)	28.8 µM (inactive)	12.3 µM (inactive)	29.8 µM (inactive)	14.5 µM (inactive)
Cc1ccc(/C=C/c2n[nH]c(N/N=C/c3ccc4c(c3)OCO4)nc2=O)cc1	> 100 µM (inactive)	23.3 µM (inactive)	33.3 µM (inactive)	17.6 µM (inactive)	25.3 µM (inactive)	21 µM (inactive)	35.3 µM (inactive)	21.1 µM (inactive)	17.2 µM (inactive)	18.7 µM (inactive)	19.6 µM (inactive)	9.23 µM (inactive)	19.6 µM (inactive)	20.2 µM (inactive)	67.8 µM (inactive)	11.2 µM (inactive)	25.9 µM (inactive)	28.8 µM (inactive)	15 µM (inactive)	14.4 µM (inactive)
CC(C)(C)N1NC1C1NN1C(C)(C)C (stereo not given)	> 100 µM (inactive)	> 100 µM (inactive)	> 100 µM (inactive)	> 100 µM (inactive)	> 100 µM (inactive)	> 100 µM (inactive)	> 100 µM (inactive)	> 100 µM (inactive)	> 100 µM (inactive)	> 100 µM (inactive)	> 100 µM (inactive)	> 100 µM (inactive)	> 100 µM (inactive)	> 100 µM (inactive)	> 100 µM (inactive)	> 100 µM (inactive)	> 100 µM (inactive)	> 100 µM (inactive)	> 100 µM (inactive)	> 100 µM (inactive)
C#C[C@]1(O)CC[C@H]2[C@@H]3CCC4=C/C(=N/NC(=O)c5cccc6c(=O)c7ccccc7[nH]c56)CCC4[C@H]3CC[C@@]21C (stereo not given in full)	> 100 µM (inactive)	43.4 µM (inactive)	> 100 µM (inactive)	29.8 µM (inactive)	50.4 µM (inactive)	34.7 µM (inactive)	77.8 µM (inactive)	53 µM (inactive)	> 100 µM (inactive)	40.3 µM (inactive)	32.3 µM (inactive)	55.5 µM (inactive)	58.1 µM (inactive)	82.2 µM (inactive)	28.8 µM (inactive)	28.4 µM (inactive)	57.5 µM (inactive)	15.8 µM (inactive)	15 µM (inactive)	35.6 µM (inactive)
COc1ccc(C(O)/C(=N/N)c2nc3ccc(Cl)cc3nc2O)cc1 (stereo not given)	> 100 µM (inactive)	62.7 µM (inactive)	> 100 µM (inactive)	> 100 µM (inactive)	> 100 µM (inactive)	> 100 µM (inactive)	> 100 µM (inactive)	> 100 µM (inactive)	> 100 µM (inactive)	> 100 µM (inactive)	> 100 µM (inactive)	> 100 µM (inactive)	> 100 µM (inactive)	> 100 µM (inactive)	97.7 µM (inactive)	> 100 µM (inactive)	> 100 µM (inactive)	> 100 µM (inactive)	> 100 µM (inactive)	> 100 µM (inactive)
O=C(O)c1ccc(Cc2ccccc2C(=O)O)cc1	> 100 µM (inactive)	> 100 µM (inactive)	> 100 µM (inactive)	> 100 µM (inactive)	> 100 µM (inactive)	> 100 µM (inactive)	> 100 µM (inactive)	> 100 µM (inactive)	> 100 µM (inactive)	> 100 µM (inactive)	> 100 µM (inactive)	> 100 µM (inactive)	> 100 µM (inactive)	> 100 µM (inactive)	> 100 µM (inactive)	> 100 µM (inactive)	> 100 µM (inactive)	> 100 µM (inactive)	49.5 µM (inactive)	> 100 µM (inactive)
